Test results published in the OPERA property sets (Mansouri et al. 2018).

With `O=C(C=Cc1ccc(O)c(O)c1)CCCCCO` as the compound, how does the logP read?
Its logP is 1.67.

With `COc1ccc(CNC(=O)C=Cc2ccc(O)c(O)c2)cc1OC` as the compound, how does the logP read?
Its logP is 1.99.

Which logP does the source give for `O=C(C=Cc1ccc(O)c(O)c1)NCCc1ccccc1` here?
The logP was 2.72.

With `CCCCCCNC(=O)c1ccc(O)c(O)c1` as the compound, how does the logP read?
Its logP is 2.71.

Which logP does the source give for `CCc1ccc2cc(O)c(O)cc2c1` here?
Its logP is 3.25.

Which logP does the source give for `COc1ccc(CCNC(=O)C=Cc2ccc(O)c(O)c2)cc1OC` here?
Its logP is 2.07.

With `CCCCOC(=O)/C=C/c1ccc(O)c(O)c1` as the compound, how does the logP read?
Its logP is 3.53.

Which logP does the source give for `CCCCNC(=O)c1ccc2cc(O)c(O)cc2c1` here?
Its logP is 2.72.

Which logP does the source give for `CCCCc1ccc(O)c(O)c1` here?
The logP was 2.96.

With `CCOc1ccc2cc(O)c(O)cc2c1` as the compound, how does the logP read?
The logP was 2.7.

For `COc1ccc(NC(=O)C=Cc2ccc(O)c(O)c2)cc1OC`, which logP is on record?
Its logP is 2.3.

With `O=C(C=Cc1ccc(O)c(O)c1)NCc1ccccc1` as the compound, how does the logP read?
Its logP is 2.48.

For `CCCCCC(O)c1ccc(O)c(O)c1` (stereo unspecified), which logP is on record?
Its logP is 2.32.

Which logP does the source give for `CCCCCCNC(=O)C=Cc1ccc(O)c(O)c1` here?
Its logP is 3.37.

With `CCCC(=O)C=Cc1ccc(O)c(O)c1` as the compound, how does the logP read?
Its logP is 2.61.

Which logP does the source give for `CCCCC=Cc1ccc(O)c(O)c1` here?
Its logP is 3.82.
